From patent US20060281806A1, “Treatment and inhibition of disease conditions using flexible heteroarotinoids” (priority 2005, published 2006)

How the values were obtained:
Raldh2 −/− embryos = experiment: Rescue of Raldh2 −/− embryos and teratogenesis; format: in vivo, mouse; settings: for No. of −/− rescued / No. of −/− unrescued / Teratogenesis (no. of embryos): E10.25 embryos
Description: Dosages varied from 0.025 to 25 mg/kg.

[1] = tested on: dorsal skin of female Skh hairless mice; experiment: Topical irritancy; format: in vivo; settings: topical on dorsal skin for 4 days; 2-log concentration dose range
Description: Female Skh hairless mice, 6-8 weeks old, were treated topically on the dorsal skin for 4 days over a 2-log concentration dose range with various compounds. Retinoic acid receptor-Hets were evaluated in A, while retinoic acid receptor-independent Flex-Hets were evaluated in B. Daily flaking and abrasion scores were combined to calculate a single cutaneous toxicity score for each mouse. Each treatment group consisted of 4 mice, and group averages were used to plot cutaneous toxicity against doses of the compounds.
Topical irritancy was evaluated according to published procedures (29). Briefly, female Skh hairless mice, 6-8 weeks old, were treated topically on the dorsal skin for 4 days over a 2-log concentration dose range with various compounds. Daily flaking and abrasion scores were combined to calculate a single cutaneous toxicity score for each mouse. Each treatment group consists of 4 mice, and group averages are used to plot cutaneous toxicity against dose of the retinoid compound.

[2] = dose 1.0 mg/kg oral to pregnant mice
[3] = dose 2.5 mg/kg oral to pregnant mice
[4] = dose 10 mg/kg oral to pregnant mice
[5] = dose 25 mg/kg oral to pregnant mice
[6] = dose 0.025 mg/kg oral to pregnant mice
[7] = dose 0.25 mg/kg oral to pregnant mice
[8] = dose 0.5 mg/kg oral to pregnant mice

CC1=C(/C=C/C(C)=C/C=C/C(C)=C/C(=O)O)C(C)(C)CCC1 [All-trans-RA]
No. of −/− rescued (Raldh2 −/− embryos; [2]): 0
No. of −/− unrescued (Raldh2 −/− embryos; [2]): 7
Teratogenesis (no. of embryos) (Raldh2 −/− embryos; [2]): 0
No. of −/− rescued (Raldh2 −/− embryos; [3]): 13
No. of −/− unrescued (Raldh2 −/− embryos; [3]): 1
Teratogenesis (no. of embryos) (Raldh2 −/− embryos; [3]): 0

CCOC(=O)c1ccc(OC(=O)c2ccc3c(c2)C(C)(C)CCN3C(C)C)cc1 [NHet17]
topical irritancy (cutaneous toxicity score) [1]: induced topical irritancy scores in a dose-responsive manner

CC1(C)CCOc2ccc(C(=O)Oc3ccc(C=NNC(N)=S)cc3)cc21 [OHet72]
topical irritancy (cutaneous toxicity score) [1]: did not induce topical irritancy
rescue of Raldh2 −/− embryos (phenotype) (Raldh2 −/− embryos; 2.5 mg/kg to pregnant mothers): no rescue
rescue of Raldh2 −/− embryos (phenotype) (Raldh2 −/− embryos; 10 or 25 mg/kg to pregnant mothers): no rescue
teratogenesis in litters (Raldh2 −/− embryos; any dosage (2.5, 10, 25 mg/kg)): no teratogenesis was observed
No. of −/− rescued (Raldh2 −/− embryos; [3]): 0
No. of −/− unrescued (Raldh2 −/− embryos; [3]): 4
Teratogenesis (no. of embryos) (Raldh2 −/− embryos; [3]): 0
No. of −/− rescued (Raldh2 −/− embryos; [4]): 0
No. of −/− unrescued (Raldh2 −/− embryos; [4]): 3
Teratogenesis (no. of embryos) (Raldh2 −/− embryos; [4]): 0
No. of −/− rescued (Raldh2 −/− embryos; [5]): 0
No. of −/− unrescued (Raldh2 −/− embryos; [5]): 5
Teratogenesis (no. of embryos) (Raldh2 −/− embryos; [5]): 0

CC(C=CC=C(C)c1ccc2c(c1)C(C)(C)CS2)=CC(=O)O [SHet65]
topical irritancy (cutaneous toxicity score) [1]: induced topical irritancy scores in a dose-responsive manner

CC(Cc1ccc(C(=O)O)cc1)c1ccc2c(c1)C(C)(C)CS2 (stereo not drawn) [SHet100]
rescue of Raldh2 −/− embryos (phenotype) (Raldh2 −/− embryos; 0.25 mg/kg to pregnant mothers): partial rescue
rescue of Raldh2 −/− embryos (phenotype) (Raldh2 −/− embryos; 0.5 mg/kg to pregnant mothers): typical rescue phenotype
teratogenesis in litter (Raldh2 −/− embryos; 2.5 mg/kg to pregnant mothers): teratogenic for all embryos in a litter
No. of −/− rescued (Raldh2 −/− embryos; [6]): 0
No. of −/− unrescued (Raldh2 −/− embryos; [6]): 2
Teratogenesis (no. of embryos) (Raldh2 −/− embryos; [6]): 0
No. of −/− unrescued (Raldh2 −/− embryos; [7]): 0
Teratogenesis (no. of embryos) (Raldh2 −/− embryos; [7]): 0
No. of −/− rescued (Raldh2 −/− embryos; [8]): 6
No. of −/− unrescued (Raldh2 −/− embryos; [8]): 1
Teratogenesis (no. of embryos) (Raldh2 −/− embryos; [8]): 0
Teratogenesis (no. of embryos) (Raldh2 −/− embryos; [3]): 11
